According to a melting point compilation (Tetko et al.):

Structure (SMILES) | melting point [°C]
Cc1nc2ccccn2c1P(c1ccccc1)c1ccccc1 | 98 to 100
COC(=O)c1sc(Cl)nc1Cl | 54 to 56
Nc1nnc(Cc2ccsc2)o1 | 151 to 153
Cn1c(CCC(=O)O)nc(=O)c2ccccc21 | 200 to 202
Cc1cc(N)c(C(N)=O)cc1F | 192 to 194
ClCc1cc(Br)ccc1Cl | 47 to 49
Cc1ccc(-n2c(C)ccc2C)cc1N | 83 to 85
COC(=O)c1nc(Cl)c2ccccc2c1O | 162 to 164
NNC(=O)CSc1nc2ccccc2o1 | 169 to 171
O=C(O)c1cccc(C(F)F)c1 | 125 to 127
CCCCN(C)c1ccc(C(=O)O)cc1 | 134 to 136
Nc1cccc(CS(=O)(=O)C2CCCCC2)c1 | 106 to 108
CC(C)(C)OC(=O)N1CCNC(C#N)C1 (stereo not given) | 109 to 111
O=C(NC(Cc1ccccc1)C(=O)O)c1ccc(Cl)cc1 (stereo not given) | 195 to 197
NCc1ccc(OCCCOc2ccc(Cl)cc2Cl)cc1 | 51 to 53
NCc1cc(OCC(F)F)ccn1 | 71 to 73
COc1c(Br)cc(Cl)cc1S(=O)(=O)Cl | 68 to 70
CCOC(=O)c1[nH]nc2ccc(Br)cc12 | 231 to 233
Cc1ccc(S(=O)(=O)N(C)C(C)C)cc1N | 117 to 119
NC(=O)c1ccsc1NC(=O)CCC(=O)O | 243 to 245
O=C(O)c1cnc2ccccc2c1SC1CCCC1 | 111 to 113
Nc1ncnc2sc3c(c12)CCCC3 | 239 to 241
N#Cc1cccc(C(=O)NCc2ccco2)c1 | 86 to 88
Cc1cc(CS(=O)(=O)Cl)no1 | 43 to 45
O=C(O)C1CC(=O)N(c2ccc(S(=O)(=O)Cl)cc2)C1 (stereo not given) | 157 to 159

Structure (SMILES) | melting point [°C]
CC(C(=O)Nc1cccc(N)c1)n1cccn1 (stereo not given) | 135 to 137
CNc1cccnc1N1CCCC1 | 105 to 107
N#CCN1CCc2ccc(N)cc21 | 87 to 89
O=C(O)c1noc(-c2cccc(F)c2F)n1 | 113 to 115
Cc1nnc2ccc(C(=O)O)cn12 | 307 to 309
O=C(O)/C=C/c1nc2ccccc2o1 | 223 to 225
Cc1cccc(C)c1OCC(=O)O | 138 to 140
Cc1nc2ncnn2c(C)c1CC(=O)O | 220 to 222
COc1ncc(C(=O)O)cn1 | 219 to 221
CC1NCCNC1=O (stereo not given) | 65 to 67
NC(=O)NC(CC(=O)O)c1ccc(Br)cc1 (stereo not given) | 199 to 201
O=C(O)c1cccc(NS(=O)(=O)c2cc(Cl)ccc2Cl)c1 | 217 to 219
O=C(O)C1CCCN1C(=O)c1ccccc1OC(F)F (stereo not given) | 124 to 126
Cn1ccnc1C(=O)c1ccco1 | 34 to 36
O=C(CCl)N1CCN(S(=O)(=O)c2ccc(F)c(Cl)c2)CC1 | 121 to 123
CN1CCN(c2ccc(C(F)(F)F)cc2N)CC1 | 178 to 180
O=C(O)CNC(=O)/C=C/c1ccccc1 | 191 to 193
Cc1ccc(C(=O)C2CC2)cc1 | 47 to 49
CC(=CC(=O)O)c1ccccc1 | 93 to 95
NC(=NO)c1ccc(Br)o1 | 129 to 131
CC1CCC(=CC(=O)O)CC1 (stereo not given) | 61 to 63
Nc1ccc(CCn2nnc(-c3ccccc3)n2)cc1 | 99 to 101
Cc1cccc(OCCCCC(=O)O)c1 | 55 to 57
CC(N)c1ccc(NC(=O)c2ccncc2)cc1 (stereo not given) | 159 to 161
O=C(O)C1CCCN(C(=O)CCOc2ccccc2)C1 (stereo not given) | 171 to 173

Structure (SMILES) | melting point [°C]
O=C1CC=NN1c1ccc(F)cc1 | 121 to 123
CN(C)c1ccc(C(=O)O)cn1 | 225 to 227
Oc1cn(-c2ccccc2)nn1 | 160 to 162
O=Cc1cncc2ccccc12 | 103 to 105
O=[N+]([O-])c1ccc(OCC(F)(F)F)nc1 | 41 to 43
COc1cc(C(=O)O)ccc1OCC(N)=O | 257 to 259
CCc1ccc2c(c1)C(=O)C(=O)N2C | 96 to 98
Cc1ccc([N+](=O)[O-])c(C)c1N | 80 to 82
Nc1ncc(Cc2cc(Cl)ccc2Cl)s1 | 110 to 114
Cc1c(C(=O)O)nnn1C1CCN(C(=O)OC(C)(C)C)CC1 | 179 to 181
CS(=O)(=O)NCc1cccc(Br)c1 | 66 to 68
COc1cc(CC#N)cc(Br)c1OC(F)F | 200 to 203
CCOC(=O)C(=O)c1cc(Br)ccc1OC | 69 to 71
COCCNC(=O)C1CCNCC1 | 158 to 160
Fc1cccc2ncnc(Cl)c12 | 139 to 141
O=C(Nc1cccc2cccnc12)OCC(F)(F)F | 75 to 77
O=Cc1cc(F)cc(F)c1 | 17 to 19
Nc1c(C(=O)O)nnc2ccccc12 | 257 to 259
NC(=O)CCC(NS(=O)(=O)c1cccc(C(F)(F)F)c1)C(=O)O (stereo not given) | 164 to 166
Cc1noc2nc(C3CC3)cc(C(=O)O)c12 | 215 to 217
O=C(C=NO)Nc1ccc(F)cc1Cl | 145 to 147
COc1cccc(-c2cc(N)n(-c3ccc(C)cc3)n2)c1 | 109 to 111
Cc1cc(C)n(Cc2ccc(C(=O)O)cc2)n1 | 179 to 181
O=C(O)CCN1C(=O)C(=O)c2ccc(F)cc21 | 179 to 181
CN(CC(=O)O)C(=O)c1ccc(Br)o1 | 110 to 112

Structure (SMILES) | melting point [°C]
O=C(CCl)Nc1nnc(C2CC2)o1 | 148 to 150
COC(=O)CC1=NC(=O)CS1 | 184 to 186
CCC(C)C(NC(=O)c1ccccc1)C(=O)O (stereo not given) | 117 to 119
Cc1ccc(C#N)c(N2CCCC2)n1 | 74 to 76
Cc1nc(S)nc(O)c1CCO | 263 to 265
CC(C(=O)Nc1ccc(N)cc1)n1cncn1 (stereo not given) | 202 to 204
O=[N+]([O-])c1cnccc1NC1CC1 | 105 to 107
Cn1cc(C(=O)O)c(C(F)F)n1 | 199 to 201
O=C(O)CNC(=O)c1c(Cl)cccc1[N+](=O)[O-] | 186 to 188
O=C1CC2(Cc3ccccc3C2)C(=O)O1 | 164 to 166
Cc1ccc(S(=O)(=O)Oc2ncnc3c(F)cc(Br)cc23)cc1 | 204 to 206
O=C(O)C1CCCCN1C(=O)OCc1ccccc1 (stereo not given) | 86 to 88
N#CCC1CC2=C(CCCC2=O)O1 (stereo not given) | 104 to 106
CCOc1ccc(C(=O)O)cc1[N+](=O)[O-] | 201 to 203
NC(Cc1cccnc1)=NO | 149 to 151
COc1cccc2c1CCCC(=O)N2 | 159 to 161
CCc1cc(O)nc(CCl)n1 | 125 to 127
CC(Cl)c1nnc(-c2cccs2)o1 (stereo not given) | 211 to 213
O=c1[nH]c(S)nc2c1cnn2-c1ccccc1 | 110 to 113
O=[N+]([O-])c1ccc(CBr)c(F)c1 | 59 to 61
CC(=O)c1cn(C)nc1C | 72 to 74
COc1cc(C)c(Br)cc1S(=O)(=O)Cl | 137 to 139
COc1cc(O)ncc1Br | 203 to 205
CCOC(=O)c1c(C)noc1N | 133 to 135
CCCS(N)(=O)=O | 47 to 49

Structure (SMILES) | melting point [°C]
NNc1ncccc1C(F)(F)F | 71 to 73
CC(C)NCc1nc2ccccc2c(=O)[nH]1 | 145 to 147
CC(O)c1c(Cl)nc2ccccn12 (stereo not given) | 132 to 134
CCNc1nc(C)c(C(=O)OCC)s1 | 102 to 104
COc1cc(C#N)ccc1OCC(=O)O | 154 to 156
O=C(O)C1CCCN(C(=O)c2ccc(Cl)cc2)C1 (stereo not given) | 145 to 152
CC(C)(C)n1[nH]c(=O)cc1N | 223 to 225
OCc1ccc(F)cc1Br | 69 to 71
Cc1oc(-c2ccco2)nc1CCl | 58 to 60
O=C(O)c1ccc(-c2cccs2)[nH]c1=O | 289 to 291
Cc1nc(NC2CC2)sc1C(=O)O | 208 to 210
O=C(O)c1cc(S(=O)(=O)NCCN2CCCC2)ccc1Cl | 279 to 281
O=C(O)c1cnc(-c2ccco2)s1 | 237 to 239
O=C(COc1ccccc1C(=O)O)Nc1ccccc1F | 197 to 199
c1ccc(CNc2cccnc2)nc1 | 50 to 52
O=C(O)c1ccccc1NC(=O)C(F)(F)F | 167 to 169
C=CCn1c(C)nnc1S | 264 to 266
Cc1cc2nc(C)c(CCC(=O)O)c(C)n2n1 | 260 to 262
CCNS(=O)(=O)c1ccccc1OC | 84 to 86
CCC1Nc2ccc(C(=O)O)cc2NC1=O (stereo not given) | 250 to 252
COC(=O)c1cc(F)cc(OC)c1N | 66 to 68
O=C1C(Br)CCCN1c1ccccc1F (stereo not given) | 54 to 56
O=C(O)CSCC(=O)Nc1ccc(F)cc1 | 125 to 127
Cc1nn(-c2ccc(Cl)cc2)cc1C(=O)O | 224 to 226
COc1ccc(Cc2nc3sc4c(c3c(=O)[nH]2)CCC4)cc1OC | 237 to 239

Structure (SMILES) | melting point [°C]
COc1cc(C(=O)O)ccc1NN | 149 to 151
COc1ccc(-n2c(CCl)nc3ccccc32)cc1 | 121 to 125
ON=Cc1ccc(N2CCOCC2)cc1 | 186 to 188
CCC(C)NS(=O)(=O)c1cccc(C(=O)O)c1 (stereo not given) | 155 to 157
Nc1nc(-c2ccc([N+](=O)[O-])cc2)no1 | 294 to 296
CCOc1ccc(NC(=O)CO)cc1 | 150 to 152
CC(C)(C)OC(=O)N1CCOCC1C(=N)NO (stereo not given) | 154 to 156
O=C(c1ccccn1)N1CCNCC1 | 231 to 233
NC(=O)CC(NS(=O)(=O)c1cccc(F)c1)C(=O)O (stereo not given) | 173 to 175
O=C(O)CC(Cc1ccccc1)c1ccccc1 (stereo not given) | 90 to 92
NCCc1ccc(OCC(N)=O)cc1 | 96 to 98
CC(C)(C)NS(=O)(=O)c1cccc(N)c1 | 137 to 139
Cc1ccc(S(=O)(=O)N2CCOCC2)cc1N | 127 to 135
COc1ccccc1CNc1ccc2[nH]c(=O)[nH]c2c1 | 216 to 218
O=S(=O)(Cl)c1ccc2nc(Cl)c(Cl)nc2c1 | 88 to 90
CN1CC(=O)N(CCCC(=O)O)C1=O | 79 to 81
O=Cc1cn(-c2cccc(Cl)c2Cl)nn1 | 139 to 141
OC(CN1CCCC1)C(F)(F)F (stereo not given) | 78 to 80
Cn1cnc2c(Br)cccc21 | 101 to 103
CCCOc1ccc(C(=O)O)cc1OC | 182 to 184
